Assay results reported in patent US12268781B2, “Sustained-release pharmaceutical compositions comprising a therapeutic agent for treating dementia and uses thereof” (priority 2018, dated 2025).
Structures can show the parent of a compound that is named as a salt.

How the values were obtained:
[1] = PK study of liposomal rivastigmine in rats, subcutaneous injection; format: in vivo, Sprague-Dawley rats
Method: An in vivo PK evaluation of the liposomal rivastigmine formulation was performed using 7-8 weeks old female Sprague-Dawley rats. The rats were housed in a holding room which operated on a 12-hr light/12-hr dark circadian cycle with free access to water and food.
The rats were divided into two groups (n=3 in each group), one group received subcutaneous injection of 10 mg/kg of free rivastigmine tartrate, prepared by dissolving rivastigmine tartrate in ultrapure water with a final concentration of 2 mg/mL. The other group received subcutaneous injection of 10 mg/kg of liposomal rivastigmine tartrate, prepared according to Example 1. Blood samples were collected at 15 min, 1, 2, 4, 6, 8, 24, 48, and 72 hours post-injection. Plasma samples were obtained by centrifugation, kept frozen at −80° C. and analyzed using a noncompartmental analysis model in PKSolver (Comput Methods Programs Biomed. 2010; 99(3):306-314).

[2] = In vitro release, human plasma system (dialysis bag in PBS); format: in vitro ADME; details: 37 °C, within 4 hours
Method: (§1) Two in vitro release systems were used in this study, the first system was the plasma free environment and the second system was the human plasma environment. To set up the first in vitro release system, 1.0 mL of liposomal rivastigmine formulation prepared according to Example 1 and 1.0 mL of free rivastigmine tartrate were placed in separate dialysis bags (Spectra/Pro*6 dialysis membrane, MWCO 50 kDa, Spectrum Labs) and both ends of the dialysis bags were sealed. To set up the second in vitro release system, 1.0 mL of liposomal rivastigmine formulation prepared according to Example 1 and 1.0 mL of free rivastigmine tartrate were placed in separate dialysis bags, each containing 1 mL of human plasma (Valley Biomedical, Inc.) and both ends of the dialysis bags were sealed. Each dialysis bag was immersed in 25 mL PBS at pH 7.4 in a 50-mL centrifuge tube and incubated in a water bath at 37±1° C. for 24 hours. At designated time points after incubation (1, 2, 4, 6 and 24 hours), 0.5 mL aliquot from the 25-mL PBS was sampled and 0.5 mL of fresh PBS was added to replace the sampling aliquot. Drug concentrations of the sampling aliquots at each time point were analyzed using high performance liquid chromatography (HPLC) to create the in vitro release profile.

[3] = In vitro release, plasma free system (dialysis bag in PBS); format: physicochemical; details: PBS pH 7.4, 37 °C, within 2 hours
Method: as §1

[4] = female, Sprague-Dawley, rat, plasma, sc, single subcutaneous injection 10 mg/kg

CCN(C)C(=O)Oc1cccc([C@H](C)N(C)C)c1 [Free Rivastigmine, rivastigmine tartrate]
rivastigmine in plasma ([1]; 8 hours post injection, FIG. 2): undetectable
rivastigmine released as indicated by AUC0-t ([1]; 72 hours post-injection): 100%
AUC(0-inf) [1, 4]: 899 ng·h/mL
AUC(0-t) [1, 4]: 896 ng·h/mL
Cmax [1, 4]: 427 ng/mL
half-life ([1]; female, Sprague-Dawley, rat, plasma, sc, single subcutaneous injection 10 mg/kg, read-out: t½ (converted)): 55.8 min
rivastigmine released [2]: 90%
rivastigmine released through the dialysis bag [3]: one hundred
